Tests used:
[1] = tested on: LLC mouse Lewis lung carcinoma; test: In vitro inhibition rate to tumor cells (MTT), LLC; format: cell-based; conditions: 50 μg/ml
Description: (§1) (1) Single cell suspension was seeded into 96-well plates (×3) (the cells was diluted in the PRMI-1640 minimum medium to 3×10^4 cells/ml, […] diluted cells/well). […] The experiments were performed in quadruplicate.
(§2) (2) The medium was removed. Solutions of the anti-tumor agents (15 compounds) were prepared in a freshly prepared medium at the concentrations indicated in the following Table. […] of the solution was added into each well. Incubation was continued for 48 hours.
(§3) (3) […] of 2 mg/ml MTT was added into each well, and incubated for 4 hours.
(§4) (4) The medium was removed from the well. The microplates were swiftly turned down to throw-off the medium. […] DMSO was added into each well, and vortexed at room temperature for 10 minutes.
(§5) (5) OD value (λ=570 nm) was measured with an Enzyme-Linked Detector.
(§6) (6) The inhibition rates (IR) of cell growth were respectively calculated based on the following equation: IR(%)=[1−(average OD of the experimental group/average OD of the control group)]×100%

[2] = tested on: MCF-7 human mammary adenocarcinoma; test: In vitro inhibition rate to tumor cells (MTT), MCF-7; format: cell-based; conditions: 50 μg/ml
Description: as §1, §2, §3, §4, §5, §6

[3] = tested on: U-937 human histocytic lymphoma; test: In vitro inhibition rate to tumor cells (MTT), U-937; format: cell-based; conditions: 50 μg/ml
Description: as §1, §2, §3, §4, §5, §6

[4] = tested on: SMMC-7721 human hepatic carcinoma; test: In vitro inhibition rate to tumor cells (MTT), SMMC-7721; format: cell-based; conditions: 50 μg/ml
Description: as §1, §2, §3, §4, §5, §6

[5] = tested on: Hela human cervical carcinoma; test: In vitro inhibition rate to tumor cells (MTT), Hela; format: cell-based; conditions: 50 μg/ml
Description: as §1, §2, §3, §4, §5, §6

[6] = tested on: Bel-7402 human hepatic carcinoma; test: In vitro inhibition rate to tumor cells (MTT), Bel-7402; format: cell-based; conditions: 50 μg/ml
Description: as §1, §2, §3, §4, §5, §6

[7] = tested on: A-549 human lung adenocarcinoma; test: In vitro inhibition rate to tumor cells (MTT), A-549; format: cell-based; conditions: 50 μg/ml
Description: as §1, §2, §3, §4, §5, §6

[8] = tested on: HL-60 human promyelocytic leukemia; test: In vitro inhibition rate to tumor cells (MTT), HL-60; format: cell-based; conditions: 50 μg/ml
Description: as §1, §2, §3, §4, §5, §6

mouse lung cancer Lewis = test: Activity against mouse grafted lung cancer Lewis; format: in vivo, Kunming mice; conditions: Lewis, first experiment, 1 mg/kg
Description: The experiments were performed according to “Guideline for New Drugs (Western medicines) in Pre-clinical Stages” issued by Bureau of Drug Policy & Administration of the People's Republic of China, and the relevant methods in “Methodology of Pharmaceutical Experiments”, Xu Shuyun et al. ed. 120 male Kunming mice weighting […] were allowed to grow 3 days. No abnormality was observed. The mice were routinely inoculated in oxter with mouse sarcoma S-180, and weighted 4 hrs. after inoculation. The mice were randomly divided into 12 groups, 10 mice/group. Group 1 was given 0.3 ml of physiological saline as negative control; Group 2 was given 5-FU as positive control, 0.6 mg/mouse; Group 3 was given hydroxycamptothecine as positive control, 0.02 mg/mouse. Groups 4, 5 and 6 were injected with 10% Compound 6, 0.4 ml/mouse, 0.2 ml/mouse, and 0.1 ml/mouse, respectively. Groups 7, 8 and 9 were injected with 10% Compound 8, 0.4 ml/mouse, 0.2 ml/mouse, and 0.1 ml/mouse, respectively. Groups 10, 11, and 12 were injected with 10% Compound 20, 0.4 ml/mouse, 0.2 ml/mouse, and 0.1 ml/mouse, respectively. The tested compounds were administered on the next day after inoculation, once a day on alternate days, 6 doses totally administered. On the next day after the end dose, the mice were weighed and sacrificed. After the tumor was excised, body weight and tumor weight were recorded. The tumor inhibition rate was calculated based on the following formula: [(average tumor weight of the control groups−average tumor weight of the experimental groups)/average tumor weight of the control groups]×100%. The data was processed statistically. The above experiments were repeated three times.
The experiments were identical with the experiments for activity against mouse grafted sarcoma S-180, except the following:
(1) the tumor cell line inoculated was mouse lung cancer Lewis;
(2) Compound 6, Compound 8 and Compound 21 were not tested for their activity;
(3) the mice were divided into six groups.

[9] = biological target: T1, HIV-1 proteinase (HIV-1 PR) (Human immunodeficiency virus type 1 group M subtype B, UniProt P04585); test: Screening for in vitro activity against HIV-1 proteinase; format: biochemical; conditions: read-out: Inhibition rate, 10 nM
T1 construct: HIV-1 proteinase digests the fluorescent-labeled substrate; purchased
Description: Principle of the test: HIV-1 proteinase digests the fluorescent-labeled substrate in an optimal reaction condition and system. The activity of the enzyme can be reflected by the fluorescent intensity in the product of the enzyme reaction. Adding a sample into the reaction system can be used for screening the inhibitor of the enzyme.
1. HIV-1 PR: commercially available, stored at −85° C.
2. Treatment of the samples: Before use, sample was dissolved in DMSO at a suitable concentration, then serially diluted (5×) with double distilled water, five serial dilutions per sample.
3. Positive control: indinavir, purchased from […].
4. Methods: The diluted sample was added into the reaction buffer containing the fluorescent-labeled substrate. Then the genetic engineered target enzyme was added, and incubated in the optimal reaction condition. The fluorescent value was measured with a FLUO star Galaxy luminoscope.

| SMILES | inhibition rate, Results (%) LLC ([1]; Table 1) [%] | inhibition rate, Results (%) LLC ([1]; Table 2 (repeated screening)) [%] | inhibition rate, Results (%) MCF-7 ([2]; Table 1) [%] | inhibition rate, Results (%) MCF-7 ([2]; Table 2 (repeated screening)) [%] | inhibition rate, Results (%) U-937 ([3]; Table 1) [%] | inhibition rate, Results (%) U-937 ([3]; Table 2 (repeated screening)) [%] | inhibition rate, Results (%) SMMC-7721 ([4]; Table 1) [%] | inhibition rate, Results (%) SMMC-7721 ([4]; Table 2 (repeated screening)) [%] | inhibition rate, Results (%) Hela ([5]; Table 1) [%] | inhibition rate, Results (%) Hela ([5]; Table 2 (repeated screening)) [%] | inhibition rate, Results (%) Bel-7402 ([6]; Table 1) [%] | inhibition rate, Results (%) Bel-7402 ([6]; Table 2 (repeated screening)) [%] | inhibition rate, Results (%) A-549 ([7]; Table 1) [%] | inhibition rate, Results (%) A-549 ([7]; Table 2 (repeated screening)) [%] | inhibition rate, Results (%) HL-60 ([8]; Table 1) [%] | inhibition rate, Results (%) HL-60 ([8]; Table 2 (repeated screening)) [%] | Average weight (g)-after administration (mouse lung cancer Lewis) [g] | Inhibition rate (%) (mouse lung cancer Lewis) | Tumor weight (mouse lung cancer Lewis; X ± SD, n = 10) [g] | inhibition at 0.01 µM [9] [%] |
| --- | --- | --- | --- | --- | --- | --- | --- | --- | --- | --- | --- | --- | --- | --- | --- | --- | --- | --- | --- | --- |
| CCCCNC=C1CC2(OC)OC3(CC2C(C)C)C(C)CCC13.Cl (centres unmarked) [Compound 28, Curcumol methyl ether n-butyl amine hydrochloride] | 0.24 | 1.23 | 32.15 | 19.98 | 59.32 | 51.23 | −3.78 | −1.02 | 58.75 | 60.45 | −2.24 | −0.45 | 1.23 | 2.31 | 2.98 | 4.32 |  |  |  |  |
| CC(C)C1CC23OC1(O)CC(Br)(CBr)C2CCC3C (centres unmarked) [Compound 30, Curcumol dibromide] | −1.83 | −4.65 | 36.15 | 30.56 | 13.25 | 13.10 | 1.03 | 4.56 | 53.87 | 56.89 | 12.40 | 9.84 | 4.36 | 4.01 | 13.20 | 4.12 |  |  |  |  |
| CC[C@@]1(O)C(=O)OCc2c1cc1n(c2=O)Cc2cc3cc(O)ccc3nc2-1 [Hydioxycamptothecine] |  |  |  |  |  |  |  |  |  |  |  |  |  |  |  |  | 21.0 | 49.7 | 1.50 ± 0.28 |  |
| CC(C)C1CC23OC1(O)CC(C)(O[N+](=O)[O-])C2CCC3C (centres unmarked) [Compound 36, Curcumol mononitrate without double bond] | 11.56 | 11.56 | −1.23 | −2.31 | 6.98 | 5.32 | 15.39 | 14.08 | 62.13 | 65.23 | 0.22 | 0.02 | 9.21 | 1.20 | 1.03 | 2.01 |  |  |  |  |
| C=CC(=O)OC12CC(=C)C3CCC(C)C3(CC1C(C)C)O2 (centres unmarked) [Compound 22, Curcumol acrylate] | −6.01 | −6.41 | 88.32 | 85.02 | 60.32 | 50.23 | 44.39 | 40.32 | 63.20 | 61.88 | 12.80 | 0.23 | 19.23 | 12.36 | 21.01 | 21.03 |  |  |  |  |
| CCCCNC=C1CC2(OC)OC3(CC2C(C)C)C(C)CCC13 (centres unmarked) [Compound 27, Curcumol methyl ether n-butyl amine] | −10.89 | −10.00 | 23.78 | 14.36 | 52.98 | 50.98 | 25.94 | 20.36 | 62.31 | 60.21 | 4.65 | 2.31 | 15.01 | 5.23 | 3.19 | 5.969 |  |  |  |  |
| CCOC12CC(=CO[N+](=O)[O-])C3CCC(C)C3(CC1C(C)C)O2 (centres unmarked) [Compound 29, Curcumol ethyl ether nitrate] | −10.12 | −1.95 | 37.85 | 30.12 | 25.32 | 12.32 | 4.26 | 5.68 | 56.98 | 50.17 | 2.51 | 3.21 | 3.89 | 1.23 | 42.12 | 42.79 |  |  |  |  |
| CC(C)(C)NC(=O)[C@@H]1CN(Cc2cccnc2)CCN1C[C@@H](O)C[C@@H](Cc1ccccc1)C(=O)N[C@H]1c2ccccc2C[C@H]1O [indinavir] |  |  |  |  |  |  |  |  |  |  |  |  |  |  |  |  |  |  |  | 92.1 |
| CCCCNC1(C)CC2(OC)OC3(CC2C(C)C)C(C)CCC13.Cl (centres unmarked) [Compound 46, Curcumol methyl ether n-butyl amine hydrochloride without double bond] | −12.99 | −17.56 | 19.88 | 14.98 | 16.32 | 8.65 | −0.86 | −0.45 | 53.12 | 49.56 | 4.55 | 4.65 | 3.12 | 3.78 | −2.60 | −4.56 |  |  |  |  |

Reference: patent US7700584B2 (Hangzhou Minsheng Pharmaceuticals Co., Ltd., priority 2004, dated 2010)
